Tested on: 2D2-TCR MOG (2D2) mice
Assay: 2D2 mouse model of optic neuritis, myelin staining of the optic nerve
Format: in vivo
Conditions: for Number of animals, average myelin content score Low / Number of animals, average myelin content score high / Number of animals, average myelin content score moderate: sulfasalazine 200 mg/kg or memantine 5 mg/kg IP BID
Excerpt: This model serves as an inducible model of optic neuritis with a high rate of penetrance. The development of optic neuritis was monitored by animal observation and histopathology.
Female 2D2 (strain C57BL/6-Tg(Tcra2D2,Tcrb2D2)1Kuch/J) and WT mice (C57BL/6) were purchased from The Jackson Laboratory. Each cohort size was 14 animals. Mice were delivered to Ophthy-DS (Kalamazoo, Mich.) under the supervision of Renovo Neural (Cleveland, Ohio) at 8-12 weeks of age and then acclimated for an additional 4 weeks before beginning the experiment. Animals were housed in pathogen-free, individually-ventilated, enriched cages on a 12 h:12 h light:dark cycle with food and water ad libitum. Mice were monitored daily for welfare and symptoms of optic neuritis.
After 4 weeks of acclimation, animals were randomized by weight into 4 groups of 14 animals each. To induce optic neuritis, 200 ng of Pertussis toxin was injected into the 2D2 animals on days 1 and 3 as described by Guan et al. Dosing of vehicle or treatment compounds began at day 1. The four cohorts are: • (1) WT mice (C57BL/6) treated with vehicle (200 μl saline IP, BID). This cohort serves as a control for the readouts of optic neuritis disease. • (2) 2D2 mice vehicle treated with vehicle (200 μl saline IP, BID). […] The memantine-treated group served as a control for anti-glutamatergic therapy in the 2D2 model of optic neuritis.
On day 30, animals were euthanized and perfused. Optic nerves and retinas were dissected out and embedded in paraffin and sections mounted on slides. 5-7 sections of the optic nerve (from one eye) from ten animals in each cohort were stained by Toluidine Blue. Histopathological analysis of the slides and quantitation of the myelin staining intensity was performed blinded by a board-certified pathologist, Dr. Igor Polyakov (Minneapolis, Minn.). Staining intensity of each slide was graded as either low, moderate or high. Both peripheral and central sections of the optic nerve were graded. The intensity of the myelin staining between the cohorts on a per section and a per animal basis was compared using chi-square and Fishers' exact test with a p<0.05 considered significant.
On a per animal basis, this yielded 20 scores per cohort: average score per section×2 scores per animal (peripheral or central)×10 animals per cohort. On a per section basis, this yielded approximately 110 score per cohort: score per section×5-7 sections per animal×2 scores per section (peripheral or central)×10 animals per cohort.

[1] = Total (central + peripheral, 20 scores), day 30
[2] = per section basis, Central Region, day 30
[3] = per section basis, Peripheral Region, day 30
[4] = per section basis, Total, day 30

## CC12CC3CC(C)(C1)CC(N)(C3)C2 [memantine]
Central Region, day 30
  Number of animals, average myelin content score Low: 0
  Number of animals, average myelin content score high: 3
  Number of animals, average myelin content score moderate: 7
Peripheral Region, day 30
  Number of animals, average myelin content score Low: 2
  Number of animals, average myelin content score high: 3
  Number of animals, average myelin content score moderate: 5
[1]
  Number of animal scores, myelin content High: 6
  Number of animal scores, myelin content Low: 2
  Number of animal scores, myelin content Moderate: 12
Optic nerve, day 30
  myelin content compared to the vehicle-treated 2D2 animals: highly significant increase in myelin content
[2]
  Number of sections, myelin content Low: 0
  Number of sections, myelin content high: 14
  Number of sections, myelin content moderate: 41
[3]
  Number of sections, myelin content Low: 10
  Number of sections, myelin content high: 14
  Number of sections, myelin content moderate: 31
[4]
  Number of section scores, myelin content High: 28
  Number of section scores, myelin content Low: 10
  Number of section scores, myelin content Moderate: 72
per-animal basis
  Percent scores, Myelin content-Total High: 30%
  Percent scores, Myelin content-Total Low: 10%
  Percent scores, Myelin content-Total Moderate: 60%
per-section basis
  Percent scores, Myelin content-Total High: 25%
  Percent scores, Myelin content-Total Low: 9%
  Percent scores, Myelin content-Total Moderate: 65%
